Reference: patent publication US11242337B2, “Compounds useful for treating gastrointestinal tract disorders” (Ardelyx, Inc., priority 2017, dated 2022)

Columns and labels:
NHE3 [1] = target: T1, NHE3 (Homo sapiens, UniProt P48764); experiment: Cell-based assay of NHE-3 activity (pre-incubation inhibition), human; settings: human Preincubation; for pIC50: 0-30 μM test compound
T1 construct: expressed in transfected cells
T1 sequence (P48764 26-834): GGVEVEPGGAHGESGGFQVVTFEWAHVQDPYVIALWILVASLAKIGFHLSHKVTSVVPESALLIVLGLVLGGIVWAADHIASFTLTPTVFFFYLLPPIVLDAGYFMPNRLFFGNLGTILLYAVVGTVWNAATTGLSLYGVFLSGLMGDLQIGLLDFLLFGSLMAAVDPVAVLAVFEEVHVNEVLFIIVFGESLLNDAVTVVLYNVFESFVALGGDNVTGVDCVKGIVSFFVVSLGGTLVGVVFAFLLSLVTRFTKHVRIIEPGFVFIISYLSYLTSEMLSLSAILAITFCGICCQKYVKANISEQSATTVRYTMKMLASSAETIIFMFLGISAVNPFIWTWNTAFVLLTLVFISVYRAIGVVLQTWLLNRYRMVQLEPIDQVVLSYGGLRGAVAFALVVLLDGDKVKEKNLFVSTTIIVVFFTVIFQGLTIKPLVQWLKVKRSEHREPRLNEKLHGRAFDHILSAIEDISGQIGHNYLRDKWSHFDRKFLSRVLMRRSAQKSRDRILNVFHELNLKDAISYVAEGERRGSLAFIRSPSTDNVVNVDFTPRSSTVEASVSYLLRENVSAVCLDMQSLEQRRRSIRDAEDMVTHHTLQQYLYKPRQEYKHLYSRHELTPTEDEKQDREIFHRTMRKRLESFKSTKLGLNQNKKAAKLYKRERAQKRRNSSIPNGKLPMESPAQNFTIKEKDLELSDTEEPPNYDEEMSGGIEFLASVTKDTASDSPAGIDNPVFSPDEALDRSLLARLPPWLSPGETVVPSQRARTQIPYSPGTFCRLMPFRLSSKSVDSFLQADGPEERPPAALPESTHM
T1 sequence (Q99653 2-195 partner limits assumed): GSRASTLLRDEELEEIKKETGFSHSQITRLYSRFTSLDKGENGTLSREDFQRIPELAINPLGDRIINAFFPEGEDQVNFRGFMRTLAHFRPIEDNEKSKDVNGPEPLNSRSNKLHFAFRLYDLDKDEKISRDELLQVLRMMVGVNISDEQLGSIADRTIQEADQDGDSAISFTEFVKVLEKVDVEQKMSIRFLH
Protocol: Rat and human NHE-3-mediated Na^+-dependent H^+ antiport was measured using a modification of the pH sensitive dye method originally reported by Paradiso (Proc. Natl. Acad. Sci. USA. (1984) 81(23): 7436-7440). PS120 fibroblasts stably expressing human NHE3 and NHERF2 were obtained from Mark Donowitz (Baltimore, Md.). Opossum kidney (OK) cells were obtained from the ATCC and propagated per their instructions. The rat NHE-3 gene (GenBank M85300) was introduced into OK cells via electroporation, and cells were seeded into 96 well plates and grown overnight. Medium was aspirated from the wells then incubated for 30 min at 37° C. with NH4Cl-HEPES buffer (20 mM NH4Cl, 80 mM NaCl, 50 mM HEPES, 5 mM KCl, 2 mM CaCl2, 1 mM MgCl2, pH 7.4) containing 5 μM BCECF-AM. Cells were washed once with Ammonium free, Na^+-free HEPES (100 mM choline, 50 mM HEPES, 10 mM glucose, 5 mM KCl, 2 mM CaCl2, 1 mM MgCl2, pH 7.4) and incubated in the same buffer for 10 minutes at room temperature to lower intracellular pH with 0-30 μM test compound. […] Changes in intracellular pH were monitored using a FLIPR Tetra® (Molecular Devices, Sunnyvale, Calif.) by excitation at λex 439 to 505 nm, and measuring BCECF fluorescence at λem 538 nm. The initial rate of the fluorescence ratio change was used as a measure of NHE-mediated Na^+/H^+ activity, and reported as the change in fluorescence ratio per minute.

NHE3 [2] = target: T1, NHE3; experiment: Cell-based assay of NHE-3 activity (persistent inhibition), human; settings: human Persistence, 60 min incubation then washout
Protocol: The ability of compounds to inhibit human and rat NHE-3-mediated Na^+ dependent H^+ antiport after application and washout was measured using a modification of the pH sensitive dye method described above. PS120 fibroblasts stably expressing human NHE3 and NHERF2 were obtained from Mark Donowitz (Baltimore, Md.). Opossum kidney (OK) cells were obtained from the ATCC and propagated per their instructions. The rat NHE-3 gene was introduced into OK cells via electroporation, and cells were seeded into 96 well plates and grown overnight. Medium was aspirated from the wells, cells were washed once with NaCl-HEPES buffer (100 mM NaCl, 50 mM HEPES, 10 mM glucose, 5 mM KCl, 2 mM CaCl2, 1 mM MgCl2, pH 7.4), then overlayed with NaCl-HEPES buffer containing 0-30 μM test compound. After a 60 min incubation at room temperature, the test drug containing buffer was aspirated from the cells. Following aspiration, cells were washed once with NaCl-HEPES buffer without drug, then incubated for 30 min at 37° C. with NH4Cl-HEPES buffer (20 mM NH4Cl, 80 mM NaCl, 50 mM HEPES, 5 mM KCl, 2 mM CaCl2, 1 mM MgCl2, pH 7.4) containing 5 μM BCECF-AM. Cells were washed once with Ammonium free, Na^+-free HEPES (100 mM choline, 50 mM HEPES, 10 mM glucose, 5 mM KCl, 2 mM CaCl2, 1 mM MgCl2, pH 7.4) and incubated in the same buffer for 10 minutes at room temperature to lower intracellular pH. NHE-3-mediated recovery of neutral intracellular pH was initiated (10 min after compound washout) by addition of Na-HEPES buffer. […] Changes in intracellular pH were monitored using a FLIPR Tetra® (Molecular Devices, Sunnyvale, Calif.) by excitation at λex 439 to 505 nm, and measuring BCECF fluorescence at λem 538 nm. The initial rate of the fluorescence ratio change was used as a measure of NHE-mediated Na^+/H^+ activity, and reported as the change in fluorescence ratio per minute.

Cc1cc(S(=O)(=O)NCCOCCOCCNC(=O)NCCCCNC(=O)NCCOCCOCCNS(=O)(=O)c2ccc(O[C@H]3c4cc(Cl)cc(C#N)c4C[C@@H]3N3CCC[C@@H](N)C3)c(C)c2)ccc1O[C@H]1c2cc(Cl)cc(C#N)c2C[C@@H]1N1CCC[C@@H](N)C1 [Example 8, 3-[2-(2-[2-[(4-[[(1S,2S)-2-[(3R)-3-Aminopiperidin-1-yl]-6-chloro-4-cyano-2,3-dihydro-1H-inden-1-yl]oxy]-3-methylbenzene)sulfonamido]ethoxy]ethoxy)ethyl]-1-[4-([[2-(2-[2-[(4-[[(1S,2S)-2-[(3R)-3-aminopiperidin-1-yl]-6-chloro-4-cyano-2,3-dihydro-1H-inden-1-yl]oxy]-3-methylbenzene)sulfonamido]ethoxy]ethoxy)ethyl]carbamoyl]amino)butyl]urea; bis(trifluoroacetic acid)]
% inhibition (NHE3 [1]): A (NHE3 < 40%)
% inhibition (NHE3 [2]): A (NHE3 < 40%)

COc1cc(Cl)cc2c1C[C@H](N1CCC[C@@H](N)C1)[C@H]2Oc1ccc(S(=O)(=O)NCCOCCOCCNC(=O)NCCCCNC(=O)NCCOCCOCCNS(=O)(=O)c2ccc(O[C@H]3c4cc(Cl)cc(OC)c4C[C@@H]3N3CCC[C@@H](N)C3)c(C)c2)cc1C [Example 9, 3-[2-(2-[2-[(4-[[(1S,2S)-2-[(3R)-3-Aminopiperidin-1-yl]-6-chloro-4-methoxy-2,3-dihydro-1H-inden-1-yl]oxy]-3-methylbenzene)sulfonamido]ethoxy]ethoxy)ethyl]-1-[4-([[2-(2-[2-[(4-[[(1S,2S)-2-[(3R)-3-aminopiperidin-1-yl]-6-chloro-4-methoxy-2,3-dihydro-1H-inden-1-yl]oxy]-3-methylbenzene)sulfonamido]ethoxy]ethoxy)ethyl]carbamoyl]amino)butyl]urea bis(trifluoroacetic acid)]
% inhibition (NHE3 [1]): A (NHE3 < 40%)
pIC50 (NHE3 [1]): C (NHE3 pIC50 > 7)
% inhibition (NHE3 [2]): B (40-70%)
IC50 (NHE3 [2]): 100 to 1000 nM

Cc1cc(Cl)cc2c1C[C@H](N1CCC[C@@H](N)C1)[C@H]2Oc1ccc(S(=O)(=O)NCCOCCOCCNC(=O)NCCCCNC(=O)NCCOCCOCCNS(=O)(=O)c2ccc(O[C@H]3c4cc(Cl)cc(C)c4C[C@@H]3N3CCC[C@@H](N)C3)c(F)c2)cc1F [Example 10, 3-[2-(2-[2-[(4-[[(1S,2S)-2-[(3R)-3-Aminopiperidin-1-yl]-6-chloro-4-methyl-2,3-dihydro-1H-inden-1-yl]oxy]-3-fluorobenzene)sulfonamido]ethoxy]ethoxy)ethyl]-1-[4-[[(2-(2-[2-[(4-[[(1S,2S)-2-[(3R)-3-aminopiperidin-1-yl]-6-chloro-4-methyl-2,3-dihydro-1H-inden-1-yl]oxy]-3-fluorobenzene)sulfonamido]ethoxy]ethoxy)ethyl]carbamoyl]amino)butyl]urea; bis(trifluoroacetic acid)]
% inhibition (NHE3 [1]): B (40-70%)
% inhibition (NHE3 [2]): C (>70%)

Cc1cc(Cl)cc2c1C[C@H](N(C)C)[C@H]2Oc1ccc(S(=O)(=O)NCCOCCOCCNC(=O)NCCCCNC(=O)NCCOCCOCCNS(=O)(=O)c2ccc(O[C@H]3c4cc(Cl)cc(C)c4C[C@@H]3N(C)C)cc2)cc1 [Example 11]
% inhibition (NHE3 [1]): C (>70%)
pIC50 (NHE3 [1]): C (NHE3 pIC50 > 7)
% inhibition (NHE3 [2]): C (>70%)
pIC50 (NHE3 [2]): C (NHE3 pIC50 > 7)

CN(C)[C@H]1Cc2c(C#N)cc(Cl)cc2[C@@H]1Oc1ccc(S(=O)(=O)NCCOCCOCCNC(=O)NCCCCNC(=O)NCCOCCOCCNS(=O)(=O)c2ccc(O[C@H]3c4cc(Cl)cc(C#N)c4C[C@@H]3N(C)C)cc2)cc1 [Example 12, 3-[2-(2-[2-[(4-[[(1S,2S)-6-Chloro-4-cyano-2-(dimethylamino)-2,3-dihydro-1H-inden-1-yl]oxy]benzene)sulfonamido]ethoxy]ethoxy)ethyl]-1-[4-([[2-(2-[2-[(4-[[(1S,2S)-6-chloro-4-cyano-2-(dimethylamino)-2,3-dihydro-1H-inden-1-yl]oxy]benzene)sulfonamido]ethoxy]ethoxy)ethyl]carbamoyl]amino)butyl]urea; bis(trifluoroacetic acid)]
% inhibition (NHE3 [1]): A (NHE3 < 40%)
pIC50 (NHE3 [1]): C (NHE3 pIC50 > 7)
% inhibition (NHE3 [2]): B (40-70%)
IC50 (NHE3 [2]): 100 to 1000 nM

CN(C)[C@H]1Cc2c(cc(Cl)cc2C(F)(F)F)[C@@H]1Oc1ccc(S(=O)(=O)NCCOCCOCCNC(=O)NCCCCNC(=O)NCCOCCOCCNS(=O)(=O)c2ccc(O[C@H]3c4cc(Cl)cc(C(F)(F)F)c4C[C@@H]3N(C)C)cc2)cc1 [Example 13, 3-[2-(2-[2-[(4-[[(1S,2S)-6-Chloro-2-(dimethylamino)-4-(trifluoromethyl)-2,3-dihydro-1H-inden-1-yl]oxy]benzene)sulfonamido]ethoxy]ethoxy)ethyl]-1-[4-([[2-(2-[2-[(4-[[(1S,2S)-6-chloro-2-(dimethylamino)-4-(trifluoromethyl)-2,3-dihydro-1H-inden-1-yl]oxy]benzene)sulfonamido]ethoxy]ethoxy)ethyl]carbamoyl]amino)butyl]urea]
% inhibition (NHE3 [1]): A (NHE3 < 40%)
% inhibition (NHE3 [2]): A (NHE3 < 40%)

CN(C)[C@H]1Cc2c(OC(F)(F)F)cc(Cl)cc2[C@@H]1Oc1ccc(S(=O)(=O)NCCOCCOCCNC(=O)NCCCCNC(=O)NCCOCCOCCNS(=O)(=O)c2ccc(O[C@H]3c4cc(Cl)cc(OC(F)(F)F)c4C[C@@H]3N(C)C)cc2)cc1 [Example 14, 1-[2-(2-[2-[(4-[[(1S,2S)-6-Chloro-2-(dimethylamino)-4-(trifluoromethoxy)-2,3-dihydro-1H-inden-1-yl]oxy]benzene)sulfonamido]ethoxy]ethoxy)ethyl]-3-[4-([[2-(2-[2-[(4-[[(1S,2S)-6-chloro-2-(dimethylamino)-4-(trifluoromethoxy)-2,3-dihydro-1H-inden-1-yl]oxy]benzene)sulfonamido]ethoxy]ethoxy)ethyl]carbamoyl]amino)butyl]urea]
% inhibition (NHE3 [1]): B (40-70%)
% inhibition (NHE3 [2]): A (NHE3 < 40%)
